In the oligonucleotide strings, read from the 5' end, every base follows the letter of its sugar. An asterisk marks phosphorothioate; unmarked linkages are phosphodiester. Other units and linkages are bracketed, terminal groups are in braces. A string of capitals states the bases alone. d = 2'-deoxy (DNA)

In data set [1] the test system is human preadipocyte. The experiment in a line: Effect of antisense compound on adipocyte proliferation and differentiation (Adipo Red). Type of data set: cell-based. The conditions noted are these: 300 nM; human preadipocyte. As for the experimental part:
First, human preadipocyte (Human Preadipocytes-sq POIETICS #PT-5020, Sanko Junyaku Co., Ltd.) was suspended in growth medium (#PT-8200, Sanko Junyaku Co., Ltd.), and after adding the suspension to a 96 well culture plate at 1×10^4 cells/well/100 μL, the cells were cultured overnight at 37° C. in the presence of 5% CO2.
The preadipocyte was cultured overnight, and after washing the preadipocyte twice with serum-free DMEM, Opti-MEM was added at 80 μL/well.
Gene transfection reagent Lipofectin was diluted with Opti-MEM to 20 μg/mL, and the dilution was allowed to stand at room temperature for 30 minutes. Next, the antisense oligodeoxynucleotide synthesized as described above was heated at 90° C. for 3 minutes, and after quenching on ice, diluted with Opti-MEM to a concentration 10 times higher than the final concentration. Equal amounts of the Lipofectin in Opti-MEM and the antisense oligodeoxynucleotide in Opti-MEM were mixed, and the mixture was incubated at room temperature for 15 minutes and added to 96 well plate at 20 μL/well. After incubating at 37° C. for 4 hours in the presence of 5% CO2, it was used for examination as described below.
The differentiation medium was prepared by using growth medium (#PT-8200, Sanko Junyaku Co., Ltd.) and supplement kit (PGM Single Quots, #PT-9500, Sanko Junyaku Co., Ltd.) according to the instruction of the kit. Next, the culture supernatant containing the Lipofectin was removed from the 96 well plate prepared in the above (2), and the plate was washed twice with serum-free DMEM, and the differentiation medium prepared as described above was added at 100 μL/well. The plate was then incubated at 37° C. for 5 days to 15 days in the presence of 5% CO2.
Accumulation of the neutral fat in the adipocyte was determined by fluorometry using Adipo Red stain.
After taking the 96 well plate out of the CO2 incubator, the plate was allowed to stand until it reached room temperature. The plate was centrifuged at 300 g (1200 rpm) for 10 minutes at room temperature to remove the medium. Next, after gently washing with PBS (SIGMA) at 200 μL/well, PBS was added to the well at 200 μL/well. Next, Adipo Red Assay Reagent (Adipo Red, Cat. #PT-7009, Lot.3F0497, A Cambrex Company) was added at 5 μL/well, and the plate was allowed to stand at room temperature for at least 10 minutes to thereby stain the neutral fat accumulated in the adipocyte. The fat accumulation was determined by measuring fluorescence intensity in a fluorometer at an excitation wavelength of 485 nm and an emission wavelength of 535 nm.
The suppression rate of the adipocyte differentiation was calculated by converting the fluorescence intensity of the well transfected with the antisense compound in relation to the fluorescence intensity of the well without transfection with the antisense compound which was assumed as 100%. The result was rated “+” when the suppression rate was at least 25%, “++” when the suppression rate was at least 50%, and “+++” when the suppression rate was at least 75%.

Data set [2] relates to human preadipocyte. The experiment in a line: Adipocyte proliferation and differentiation, neutral fat accumulation (Adipo Red). In kind it is cell-based. The conditions noted are these: antibody final concentration 5 μL/mL; 15 days; AdipoRed. As for the experimental part: The differentiation medium was prepared by adding supplement kit PGM SingleQuots, #PT-9500, Lot.08101163 (Sanko Junyaku Co., Ltd.) to 100 mL of growth medium. 50 μL of the supernatant was removed from the 96 well plate prepared in Example 12, and 50 μL of the siRNA or the antisense oligonucleotide prepared in the differentiation medium was added, and incubation was conducted in a CO2 incubator for 5 days to 15 days.
The amount of neutral fat accumulated in the adipocyte was determined by fluorometry using Adipo Red stain.
After taking the 96 well plate out of the CO2 incubator, the plate was allowed to stand until it cooled to room temperature. The plate was centrifuged at 300 g (1200 rpm) for 10 minutes at room temperature to remove the medium. Next, the plate was gently washed with 200 μL/well of PBS (Sigma), and 200 μL/well of PBS was added to the well.
Next, 5 μL/well of Adipo Red Assay Reagent (Adipo Red, Cat. #PT-7009, Lot.3F0497, A Cambrex Company) was added, and the plate was allowed to stand at room temperature for at least 10 minutes to thereby stain the neutral fat that had accumulated in the adipocyte. The fluorescence intensity was measured in a fluorometer at an excitation wavelength of 485 nm and an emission wavelength of 535 nm to thereby determine the fat accumulation.
According to the method of Example 15, M82463 was added to the human preadipocyte incubation system at a concentration of 0.3 to 10 μg/mL so that the final concentration of the DMSO was 0.2%. As a control, a group having only the DMSO added to a final concentration of 0.2% was used.
After preparation of the antibody to the concentration of 0.100 mg/mL with physiological saline, 9 volumes of adipocyte differentiation medium was added to 1 volume of the antibody solution, and the solution was sterilized by filtering through a filter having a diameter of 0.22 μm (MILLEX-GV 0.22 μm Filter unit, 3slgv013SL, Lot. R2NN83622, MILLIPORE). […]

As for “2 (dC*dT*dG*dG*dT*dT*dA*dA*dT*dG*dG*dT*dT*dC*dA*dC*dA*dT*dC*dT) [compound 2]”, the “Supression of adipose differentiation 300 nM” value in the data set on human preadipocyte [1] is on record as “++ (“++” when the suppression rate was at least 50%)”. In addition, the Suppressive effect result in the data set with human preadipocyte [2] is recorded as “++ (suppression by 50% or higher)”.

The values are drawn from patent US20080292619A1, “Pharmaceutical Composition Containing Meltrin Antagonist” (MOCHIDA PHARMACEUTICAL CO., LTD., priority 2004, published 2008).
